Broadly, the IC50 is the concentration that gives 50% inhibition.

The source made the active and inactive calls. The rule behind the calls is not given here.

Data on 5 molecules can be found in ChEMBL document CHEMBL4819112, “Design, synthesis and antitumor activity of phthalazine-1,4-dione-based menaquinone analogs” (Bioorg Med Chem Lett, 2021).

One data set relates to JHH7. The experiment in a line: (§1) Growth inhibition of human JHH7 cells measured after 24 hrs. Type of data set: functional, cell-based.
The test system of the next data set is Hepatocyte. Kind of data set: Growth inhibition of human hepatocytes cells upto 10 uM measured after 24 hrs. The class given is cell-based.
The nature of data set [1]: as §1. Type of data set: functional, cell-based. The settings on record: JHH7, 24 h.
A further data set deals with FLC-4. The experiment in a line: Growth inhibition of human FLC-4 cells measured after 24 hrs. Type of data set: functional, cell-based.

As for `CC(C)=CCC/C(C)=C/CC/C(C)=C/Cn1c(=O)c2ccccc2c(=O)n1C`, in the data set on JHH7, the result was Active.

Consider `CC(C)=CCn1c(=O)c2ccccc2c(=O)n1C`, for which the Activity entry in the data set on Hepatocyte is “Non-Toxic”. Moreover, the outcome in the data set on JHH7 was Active.

For the molecule `CC(C)=CCC/C(C)=C/CC/C(C)=C/CC/C(C)=C/Cn1c(=O)c2ccccc2c(=O)n1C`, the result with JHH7 was Active.

On to `C/C(=C\CC/C(C)=C/Cn1c(=O)c2ccccc2c(=O)n1C)CC/C=C(\C)CC/C=C(\C)C(=O)O`, for which, in the data set on JHH7, the outcome was Active.

`CC(C)=CCC/C(C)=C/Cn1c(=O)c2ccccc2c(=O)n1C`: the Activity result in the data set with Hepatocyte is recorded as “Non-Toxic”. In data set [1], this molecule showed an IC50 of 340 nM. Besides, the outcome in the data set with FLC-4 was Active.
